Source: patent US9493448B2, “Cycloalkane derivatives” (Daiichi Sankyo Company, Limited, priority 2012, dated 2016)

Target: hNav 1.7 (Homo sapiens (Human), UniProt Q15858)
Experiment: Electrophysiological evaluation, automated patch clamp IonWorks Quattro (Population Patch Clamp mode)
Assay type: cell-based
Details: HEK293A cells stably expressing hNav 1.7/β1/β2; response to second depolarization pulse, pre-pulse potential set to V1/2; read-out: hNav1.7 IC50

hNav 1.7, sequence (Q15858 whole entry): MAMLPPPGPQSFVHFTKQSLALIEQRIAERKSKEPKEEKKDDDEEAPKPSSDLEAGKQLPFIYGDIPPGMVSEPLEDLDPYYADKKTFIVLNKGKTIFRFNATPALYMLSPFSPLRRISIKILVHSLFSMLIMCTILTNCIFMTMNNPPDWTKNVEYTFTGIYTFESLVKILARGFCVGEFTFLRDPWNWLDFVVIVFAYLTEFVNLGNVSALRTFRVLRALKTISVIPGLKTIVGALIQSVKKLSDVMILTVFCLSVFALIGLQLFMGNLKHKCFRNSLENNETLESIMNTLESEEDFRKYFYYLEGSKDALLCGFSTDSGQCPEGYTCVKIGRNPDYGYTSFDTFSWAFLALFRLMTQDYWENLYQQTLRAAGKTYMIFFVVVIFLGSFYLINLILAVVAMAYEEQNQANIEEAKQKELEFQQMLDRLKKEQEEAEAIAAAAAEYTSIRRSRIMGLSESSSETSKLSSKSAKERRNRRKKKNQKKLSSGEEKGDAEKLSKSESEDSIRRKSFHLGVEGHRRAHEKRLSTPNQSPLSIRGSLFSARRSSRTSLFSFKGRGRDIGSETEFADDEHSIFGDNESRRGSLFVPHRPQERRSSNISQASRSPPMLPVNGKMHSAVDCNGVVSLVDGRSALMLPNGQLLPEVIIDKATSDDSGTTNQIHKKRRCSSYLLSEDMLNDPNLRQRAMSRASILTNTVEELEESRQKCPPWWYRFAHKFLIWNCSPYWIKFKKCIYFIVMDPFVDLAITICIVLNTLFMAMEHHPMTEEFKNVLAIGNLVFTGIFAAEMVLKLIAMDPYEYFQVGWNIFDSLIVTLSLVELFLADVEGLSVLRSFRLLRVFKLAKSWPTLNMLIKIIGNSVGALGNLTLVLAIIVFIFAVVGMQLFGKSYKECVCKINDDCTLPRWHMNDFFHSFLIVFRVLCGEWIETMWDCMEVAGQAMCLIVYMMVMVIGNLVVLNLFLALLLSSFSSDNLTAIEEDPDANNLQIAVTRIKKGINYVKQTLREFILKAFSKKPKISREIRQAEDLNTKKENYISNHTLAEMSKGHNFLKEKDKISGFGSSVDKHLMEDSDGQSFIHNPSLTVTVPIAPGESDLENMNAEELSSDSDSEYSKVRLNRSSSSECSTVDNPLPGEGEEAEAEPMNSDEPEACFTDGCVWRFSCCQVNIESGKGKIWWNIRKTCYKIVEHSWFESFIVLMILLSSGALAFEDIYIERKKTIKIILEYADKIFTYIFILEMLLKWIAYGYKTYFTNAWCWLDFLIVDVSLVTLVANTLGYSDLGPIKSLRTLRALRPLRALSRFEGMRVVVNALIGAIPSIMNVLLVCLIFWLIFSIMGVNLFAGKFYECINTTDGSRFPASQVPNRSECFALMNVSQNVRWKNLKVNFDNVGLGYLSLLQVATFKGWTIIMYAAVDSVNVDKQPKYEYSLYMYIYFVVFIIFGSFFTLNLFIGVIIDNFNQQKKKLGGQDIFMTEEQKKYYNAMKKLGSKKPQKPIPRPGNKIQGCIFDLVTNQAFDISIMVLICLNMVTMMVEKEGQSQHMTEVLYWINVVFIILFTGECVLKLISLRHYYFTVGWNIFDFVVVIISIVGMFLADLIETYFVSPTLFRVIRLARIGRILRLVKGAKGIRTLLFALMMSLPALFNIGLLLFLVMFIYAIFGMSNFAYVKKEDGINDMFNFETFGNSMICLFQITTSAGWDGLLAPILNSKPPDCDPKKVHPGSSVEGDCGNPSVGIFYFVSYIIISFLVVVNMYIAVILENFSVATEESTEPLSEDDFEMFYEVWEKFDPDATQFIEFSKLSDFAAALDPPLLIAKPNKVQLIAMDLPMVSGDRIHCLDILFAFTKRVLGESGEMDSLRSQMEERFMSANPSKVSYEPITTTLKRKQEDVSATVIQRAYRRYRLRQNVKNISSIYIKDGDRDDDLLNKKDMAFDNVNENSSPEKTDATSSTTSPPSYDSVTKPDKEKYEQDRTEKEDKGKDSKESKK
hNav 1.7, sequence (Q07699 19-218 partner): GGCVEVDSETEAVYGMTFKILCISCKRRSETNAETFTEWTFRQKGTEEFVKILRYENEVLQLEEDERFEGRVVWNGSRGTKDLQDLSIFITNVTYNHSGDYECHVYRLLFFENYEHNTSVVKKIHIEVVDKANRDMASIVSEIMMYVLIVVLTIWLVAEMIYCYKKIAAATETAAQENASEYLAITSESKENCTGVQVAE
hNav 1.7, sequence (O60939 30-215 partner): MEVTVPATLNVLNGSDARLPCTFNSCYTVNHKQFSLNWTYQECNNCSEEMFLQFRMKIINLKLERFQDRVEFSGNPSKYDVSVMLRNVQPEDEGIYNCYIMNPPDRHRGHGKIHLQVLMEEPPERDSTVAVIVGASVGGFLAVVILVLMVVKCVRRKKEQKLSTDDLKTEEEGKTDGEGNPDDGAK

Cn1nccc1[C@H]1CCC[C@@H]1Oc1ccc(S(=O)(=O)Nc2nccs2)cc1F (relative stereo) [Example 16, 3-Fluoro-4-{[(1S*,2R*)-2-(1-methyl-1H-pyrazol-5-yl)cyclopentyl]oxy}-N-(1,3-thiazol-2-yl)benzenesulfonamide] and Cn1nccc1[C@H]1CCC[C@@H]1Oc1ccc(S(=O)(=O)Nc2ccncn2)cc1C#N (relative stereo) [Example 26, 3-Cyano-4-{[(1S*,2R*)-2-(1-methyl-1H-pyrazol-5-yl)cyclopentyl]oxy}-N-(pyrimidin-4-yl)benzenesulfonamide] are within 1.5-fold of each other in IC50: 0.23 µM for the first, 0.2 µM for the second.

Compared with O=S(=O)(Nc1ncns1)c1cc(F)c(O[C@@H]2CCCC[C@H]2c2ccccc2)cc1F [Example 75, 2,5-Difluoro-4-{[(1R,2S)-2-phenylcyclohexyl]oxy}-N-(1,2,4-thiadiazol-5-yl)benzenesulfonamide], O=S(=O)(Nc1ncns1)c1cc(F)c(O[C@H]2CCCCC[C@@H]2c2ccccc2)cc1F (relative stereo) [Example 7, 2,5-Difluoro-4-{[(1S*,2R*)-2-phenylcycloheptyl]oxy}-N-(1,2,4-thiadiazol-5-yl)benzenesulfonamide] is lower in IC50: > 10 µM for the first, 0.45 µM for the second. The second is the more potent here.

Going from CCc1cc(S(=O)(=O)Nc2ccncn2)ccc1O[C@H]1CCCC[C@@H]1c1c[nH]nc1N (relative stereo) [Example 89, 4-{[(1S*,2R*)-2-(3-Amino-1H-pyrazol-4-yl)cyclohexyl]oxy}-3-ethyl-N-(pyrimidin-4-yl)benzenesulfonamide] to Cn1nccc1[C@H]1CCC[C@@H]1Oc1cc(Cl)c(S(=O)(=O)Nc2ccncn2)cc1F (relative stereo) [Example 19, 2-Chloro-5-fluoro-4-{[(1S*,2R*)-2-(1-methyl-1H-pyrazol-5-yl)cyclopentyl]oxy}-N-(pyrimidin-4-yl)benzenesulfonamide], the IC50 rises from 0.13 µM to 0.51 µM (3.9-fold).

First: CC(=O)O[C@@H]1CC[C@H](Oc2cc(F)c(S(=O)(=O)Nc3ccncn3)cc2Cl)[C@@H](c2ccnn2C)C1 [Example 166, (1R,3R,4S)-4-[2-Chloro-5-fluoro-4-(pyrimidin-4-ylsulfamoyl)phenoxy]-3-(1-methyl-1H-pyrazol-5-yl)cyclohexyl acetate]
Second: Cn1nccc1[C@H]1CCC(F)(F)C[C@@H]1Oc1cc(F)c(S(=O)(=O)Nc2ccncn2)cc1F [Example 102, 4-{[(1S,2R)-5,5-Difluoro-2-(1-methyl-1H-pyrazol-5-yl)cyclohexyl]oxy}-2,5-difluoro-N-(pyrimidin-4-yl)benzenesulfonamide]
The IC50 of the first is 1.6-fold higher: 0.059 µM for the first, 0.036 µM for the second.

O=S(=O)(Nc1cscn1)c1cc(Cl)c(O[C@H]2CCCC[C@@H]2n2ccnc2)cc1F (relative stereo) [Example 13, 5-chloro-2-fluoro-4-{[(1S*,2S*)-2-(1H-imidazol-1-yl)cyclohexyl]oxy}-N-(1,3-thiazol-4-yl)benzenesulfonamide] and CCn1nccc1[C@H]1CCCC[C@@H]1Oc1cc(F)c(S(=O)(=O)Nc2cscn2)cc1Cl (relative stereo) [Example 12, 5-Chloro-4-{[(1S*,2R*)-2-(1-ethyl-1H-pyrazol-5-yl)cyclohexyl]oxy}-2-fluoro-N-(1,3-thiazol-4-yl)benzenesulfonamide] are within 1.5-fold of each other in IC50: 0.082 µM for the first, 0.12 µM for the second.

First: Cc1cc(S(=O)(=O)Nc2ccncn2)c(F)cc1O[C@H]1CCC(F)(F)C[C@@H]1c1ccn[nH]1 (relative stereo) [Example 157, 4-{[(1S*,2R*)-4,4-Difluoro-2-(1H-pyrazol-5-yl)cyclohexyl]oxy}-2-fluoro-5-methyl-N-(pyrimidin-4-yl)benzenesulfonamide]
Second: Cn1nccc1[C@@H]1[C@@H](Oc2cc(F)c(S(=O)(=O)Nc3ccncn3)cc2F)CCCC1(F)F (relative stereo) [Example 117, 4-{[(1S*,2R*)-3,3-Difluoro-2-(1-methyl-1H-pyrazol-5-yl)cyclohexyl]oxy}-2,5-difluoro-N-(pyrimidin-4-yl)benzenesulfonamide]
The IC50 of the first is 15-fold lower: 0.05 µM for the first, 0.75 µM for the second.
